Here are results for 2 molecules from paper PMC10576769 (Nature Communications, 2023).

Where “and” joins values, the source holds several entries; their conditions need not be identical. Equal entries are not always repeated. Where two headings read alike, the source gives them in different places. Where a SMILES comes first, the peptide text is derived from it.

The subject of assay [1] is LmPC-PLC^C143S+C168S. The assay is classed as biochemical, Listeria monocytogenes. The note with it: Fig. 4g, as E100.
Assay [2] concerns LmPC-PLC^C168S. The assay is classed as biochemical, Listeria monocytogenes. As to conditions: Fig. 4g, as E100.
Assay [3] deals with CpPC-PLC. It counts as biochemical, Clostridium perfringens.
Assay [4] deals with BcPC-PLC. The assay is classed as biochemical, Bacillus cereus.
In assay [5] the test system is LmPC-PLC^C143S. It counts as biochemical, Listeria monocytogenes. The note with it: Fig. 4g, as E100.
Assay [6] deals with CpPC-PLC. It counts as biochemical, Clostridium perfringens. This is another data set of the same source.
Assay [7] has as its system BcPC-PLC. It counts as biochemical, Bacillus cereus. The source holds these as a separate data set.
Assay [8] is classed as binding. The note with it: pH 6.5.
Assay [9] has as its target LmPC-PLC (Listeria monocytogenes serovar 1/2a, UniProt P33378). The experiment in a line: biochemical. It counts as biochemical. The note with it: for Enzymatic activity towards 4-NPPC (slope): Lm 500 nM, 0 = no slope could be determined; for Enzymatic activity towards 4-NPPC (slope) / Activity of LmPC-PLC towards 4-NPPC (slope): 4-NPPC 1 mM; for Activity of LmPC-PLC towards 4-NPPC (slope): LmPC-PLC 500 nM, 20 mM MES pH 6.5, 150 mM NaCl, 50 μM ZnSO4.

In the case of `C[C@H](NC(=O)[C@@H](N)CC(N)=O)C(=O)N[C@@H](CS)C(=O)N[C@@H](CS)C(=O)N[C@@H](CC(=O)O)C(=O)N[C@@H](CCC(=O)O)C(=O)O` [NE-6] (H-NACCDE-OH; N-terminus and C-terminus assumed), the “relative activity of LmPC-PLC C143S+ C168S on 4-NPPC (compared to uninhibited activity)” value in assay [1] (replicate 1) came out at 1.106; in assay [1] (replicate 2) it was 1.078; in assay [1] (replicate 3), 1.062. The “relative activity of LmPC-PLC C168S on 4-NPPC (compared to uninhibited activity)” value in assay [2] (replicate 1) is 0.4893; in assay [2] (replicate 2), 0.5344; in assay [2] (replicate 3), 0.4659. Besides, the “relative activity on POPC (compared to uninhibited activity), Cp” value in assay [3] was 1.136 and 1.059 and 1.144. Further, the “relative activity on POPC (compared to uninhibited activity), Bc” value in assay [4] was 1.041 and 0.8984 and 0.9777. Moreover, the “relative activity of LmPC-PLC C143S on 4-NPPC (compared to uninhibited activity)” value in [5] (replicate 1) is 0.8443; in assay [5] (replicate 2), 0.9328; in assay [5] (replicate 3), 0.9098. Further, the “relative activity on 4-NPPC (compared to uninhibited activity), Cp” value in assay [6] was 0.8963 and 0.9574 and 0.885. Besides, the “relative activity on 4-NPPC (compared to uninhibited activity), Bc” value in [7] was 0.9308 and 0.8774 and 0.8898.
Consider `c1cnc2c(c1)ccc1cccnc12` [O-phe, O-phenanthroline], for which the “% of LLO in the pellet fraction” value in assay [8] is recorded as 22.84%. In addition, the “Enzymatic activity towards 4-NPPC (slope)” value turned out to be 0 in [6]; 0 in assay [9] (O-phe 1 mM + ions (50 μM ZnSO4), replicate 1); 0 in assay [9] (O-phe 1 mM + ions (50 μM ZnSO4), replicate 2); 0 in assay [9] (O-phe 1 mM + ions (50 μM ZnSO4), replicate 3); 0 in assay [9] (O-phe 1 mM, no ions added, replicate 1); 0 in assay [9] (O-phe 1 mM, no ions added, replicate 2). The “Enzymatic activity towards 4-NPPC (slope)” value came to 0 in assay [9] (O-phe 1 mM, no ions added, replicate 3) and 0 in assay [7]. Further, the “inhibition of LmPC-PLC activity by O-phe” value in [9] (O-phe 1 mM, 50 μM Zn2+ added to the protein, 30 min preincubation, 4-NPPC, Supplementary Fig. 9c) is reported as “completely inhibited”. For the same molecule, the “Activity of LmPC-PLC towards 4-NPPC (slope)” value is 0.0003865 abs/min in [9] (inhibitor 4 uM, replicate 1 of N=3); 0.0003893 abs/min in assay [9] (inhibitor 4 uM, replicate 2 of N=3); 0.0004002 abs/min in [9] (inhibitor 4 uM, replicate 3 of N=3); 0.0003883 abs/min in [9] (inhibitor 8 uM, replicate 1 of N=3); 0.0003708 abs/min in [9] (inhibitor 8 uM, replicate 2 of N=3); 0.0003802 abs/min in assay [9] (inhibitor 8 uM, replicate 3 of N=3). Moreover, the “Activity of LmPC-PLC towards 4-NPPC (slope)” value is given as 0.0003736 abs/min in [9] (inhibitor 16 uM, replicate 1 of N=3); 0.0003589 abs/min in assay [9] (inhibitor 16 uM, replicate 2 of N=3); 0.0003489 abs/min in assay [9] (inhibitor 16 uM, replicate 3 of N=3); 0.0003148 abs/min in assay [9] (inhibitor 31 uM, replicate 1 of N=3); 0.0003263 abs/min in assay [9] (inhibitor 31 uM, replicate 2 of N=3); 0.0003082 abs/min in assay [9] (inhibitor 31 uM, replicate 3 of N=3). The “Activity of LmPC-PLC towards 4-NPPC (slope)” value in [9] (inhibitor 63 uM, replicate 1 of N=3, value 0 = no slope could be determined) was 0.0002666 abs/min; in assay [9] (inhibitor 63 uM, replicate 2 of N=3, value 0 = no slope could be determined) it was 0.0002954 abs/min; in assay [9] (inhibitor 63 uM, replicate 3 of N=3, value 0 = no slope could be determined), 0.000224 abs/min; in [9] (inhibitor 125 uM, replicate 1 of N=3, value 0 = no slope could be determined), 8.381e-5 abs/min; in [9] (inhibitor 125 uM, replicate 2 of N=3, value 0 = no slope could be determined) it was 0.0001203 abs/min; in assay [9] (inhibitor 125 uM, replicate 3 of N=3, value 0 = no slope could be determined), 8.369e-5 abs/min.
